Source: US8513232B2, “Substituted spirocyclic piperidine derivatives as histamine-3 (H3) receptor ligands” (Cephalon, Inc., priority 2008, dated 2013)
Like-named read-outs stand apart in the source and are kept apart here.

Experiments:
human H3 receptor = molecular target: T1, human H3 receptor (Homo sapiens, UniProt Q9Y5N1); assay: Human H3 radioligand binding ([3H]-N-alpha-methylhistamine, SPA)
T1 construct: expressed in transfected cells
Summary of the method: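 Compounds (0.01 nM-30 μM) competed with approximately 1 nM [3H]-N-alpha-methylhistamine for human H3 receptor in membranes of stably transfected CHO cells, 10 μg protein per well, in Tris-HCl pH 7.4/MgCl2/BSA buffer for 4 h at room temperature. Bound radioligand measured by scintillation proximity; 10 μM clobenpropit gave non-specific binding.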

[1] = molecular target: T2, rat histamine H3 receptor (Rattus norvegicus, UniProt Q9QYN8); assay: Rat H3 radioligand binding ([3H]-N-alpha-methylhistamine, SPA)
T2 construct: encoding the entire 445-amino-acid rat histamine H3 receptor; expressed in transfected cells; membrane preparation
T2 sequence (Q9QYN8 whole entry): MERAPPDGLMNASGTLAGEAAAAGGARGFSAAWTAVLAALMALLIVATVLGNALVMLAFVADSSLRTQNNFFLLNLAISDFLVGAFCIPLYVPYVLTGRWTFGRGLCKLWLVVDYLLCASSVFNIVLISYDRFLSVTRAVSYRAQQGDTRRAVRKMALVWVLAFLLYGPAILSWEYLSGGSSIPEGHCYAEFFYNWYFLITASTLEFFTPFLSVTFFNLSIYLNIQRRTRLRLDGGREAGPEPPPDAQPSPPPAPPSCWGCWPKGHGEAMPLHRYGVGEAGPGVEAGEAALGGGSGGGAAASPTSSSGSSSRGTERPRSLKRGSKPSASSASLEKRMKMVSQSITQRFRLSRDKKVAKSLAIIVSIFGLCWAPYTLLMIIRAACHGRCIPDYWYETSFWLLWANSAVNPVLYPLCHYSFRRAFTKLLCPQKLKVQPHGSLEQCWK
Summary of the method: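 SPA-bead binding assay using [3H]-N-alpha-methylhistamine (approximately 1 nM final) with test compounds from 0.01 nM to 30 μM. Rat H3 receptor membranes came from stably transfected CHO-A3 cells; incubation ran 4 h at room temperature, in the dark, in Tris pH 7.4 buffer with MgCl2 and BSA. Clobenpropit (10 μM) gave non-specific binding.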

[2] = Table C, human H3 binding, read-out: Human H3 Ki
[3] = Table C, rat H3 binding, read-out: Rat H3 Ki
[4] = Table A, human H3 binding, read-out: Human Ki
[5] = Table A, rat H3 binding, read-out: Rat Ki
[6] = Human H3 binding, Table B, Examples 136-362, read-out: hum H3 binding Ki
[7] = Rat H3 binding, Table B, Examples 136-362, read-out: rat H3 binding Ki
[8] = human H3 binding, Table D, read-out: Human H3 Ki
[9] = rat H3 binding, Table D, read-out: Rat H3 Ki

T1 sequence (Q9Y5N1 whole entry): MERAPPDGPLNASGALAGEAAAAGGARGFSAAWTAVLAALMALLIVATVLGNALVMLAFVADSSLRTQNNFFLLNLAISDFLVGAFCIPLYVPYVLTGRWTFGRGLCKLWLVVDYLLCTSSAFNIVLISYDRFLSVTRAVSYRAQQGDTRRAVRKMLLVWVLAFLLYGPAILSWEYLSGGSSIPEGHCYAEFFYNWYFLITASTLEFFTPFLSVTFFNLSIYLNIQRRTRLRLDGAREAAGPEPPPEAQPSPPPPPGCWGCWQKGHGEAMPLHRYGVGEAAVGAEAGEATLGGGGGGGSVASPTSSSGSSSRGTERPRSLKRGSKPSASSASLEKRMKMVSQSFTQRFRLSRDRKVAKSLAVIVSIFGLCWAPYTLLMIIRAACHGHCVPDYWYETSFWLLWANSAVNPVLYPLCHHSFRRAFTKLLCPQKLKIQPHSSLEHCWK

Row | SMILES | Ki (human H3 receptor; read-out: Human H3 Ki) [nM] | Ki ([1]; read-out: Rat H3 kI) [nM] | melting point | further results
1 | OC(c1ccc2c(c1)COC1(CCN(C3CCC3)CC1)O2)C1CCSCC1 (stereo not drawn) [Example 496] | < 200 | < 200 | 85 to 90 °C | 
2 | CN(C)C(=O)C1CCN(c2ccc3c(c2)CCC2(CCN(C4CCC4)CC2)O3)CC1 [Example 436] |  |  | 140 to 142 °C | Ki (human H3 receptor; [2]): < 200 nM; Ki [1, 3]: < 200 nM
3 | Cc1ccc(-c2ccc3c(c2)COC2(CCN(C4CCC4)CC2)O3)cn1 [Example 31] |  |  | 137 to 139 °C | Ki (human H3 receptor; [4]): < 200 nM; Ki [1, 5]: < 200 nM
4 | CNC(=O)c1ccc(Nc2ccc3c(c2)COC2(CCN(C4CCC4)CC2)O3)nc1 [Example 130] |  |  | 211 to 213 °C | Ki (human H3 receptor; [4]): < 200 nM; Ki [1, 5]: < 200 nM
5 | CNC(=O)c1ccc(-c2ccc3c(c2)COC2(CCN(C4CCC4)CC2)O3)cc1Cl [Example 225] |  |  | 276 to 277 °C | Ki (human H3 receptor; [6]): < 200 nM; Ki [1, 7]: < 200 nM
6 | O=C1OCCN1c1ccc2c(c1)COC1(CCN(C3CCC3)CC1)O2 [Example 77] |  |  | 165 to 168 °C | Ki (human H3 receptor; [4]): < 200 nM; Ki [1, 5]: < 200 nM
7 | Cn1cc2c(n1)CCC(c1ccc3c(c1)COC1(CCN(C4CCC4)CC1)O3)C2 (stereo not drawn) [Example 469] | < 200 | < 200 | 138 to 140 °C | 
8 | c1ncc(COc2ccc3c(c2)CCC2(CCN(C4CCC4)CC2)O3)o1 [Example 325] |  |  | 45 to 47 °C | Ki (human H3 receptor; [6]): < 200 nM; Ki [1, 7]: < 200 nM
9 | O=S1(=O)CCN(c2ccc3c(c2)COC2(CCN(C4CCC4)CC2)O3)CC1 [Example 421] |  |  | 157 to 158 °C | Ki (human H3 receptor; [2]): < 200 nM; Ki [1, 3]: < 200 nM
10 | O=C(Nc1ccc2c(c1)COC1(CCN(C3CCC3)CC1)O2)c1cncs1 [Example 271] |  |  | 222 to 224 °C | Ki (human H3 receptor; [6]): < 200 nM; Ki [1, 7]: < 200 nM
11 | c1cc(-c2ccc3c(c2)CCC2(CCN(C4CCC4)CC2)O3)ccc1C1=NCCO1 [Example 158] |  |  | 213 to 215 °C | Ki (human H3 receptor; [6]): < 200 nM; Ki [1, 7]: < 200 nM
12 | [O-][S+]1CC=C(c2ccc3c(c2)COC2(CCN(C4CCC4)CC2)O3)CC1 (stereo not drawn) [Example 461] | < 200 | < 200 | 155 to 158 °C | 
13 | c1cc2c(cc1OC1CCOCC1)CCC1(CCN(C3CCC3)CC1)O2 [Example 433] |  |  | 252 to 254 °C | Ki (human H3 receptor; [2]): < 200 nM; Ki [1, 3]: < 200 nM
14 | CN(C)C(=O)c1ccc(N2CCN(c3ccc4c(c3)COC3(CCN(C5CCC5)CC3)O4)C2=O)cc1 [Example 244] |  |  | 243 to 245 °C | Ki (human H3 receptor; [6]): < 200 nM; Ki [1, 7]: < 200 nM
15 | c1cc2c(cc1O[C@@H]1CCOC1)CCC1(CCN(C3CCC3)CC1)O2 [Example 443] |  |  | 261 to 263 °C | Ki (human H3 receptor; [2]): < 200 nM; Ki [1, 3]: 200 to 1000 nM

More lines, main results first:

Row | Ki (human H3 receptor; read-out: Human H3 Ki) [nM] | Ki ([1]; read-out: Rat H3 kI) [nM] | melting point | SMILES | further results
16 | < 200 | < 200 | 219 to 221 °C | O=C1CCC(Cc2ccc3c(c2)COC2(CCN(C4CCC4)CC2)O3)CN1 (stereo not drawn) [Example 539] | 
17 | < 200 | < 200 | 64 to 66 °C | OC1(c2ccc3c(c2)COC2(CCN(C4CCC4)CC2)O3)CCC1 [Example 501] | 
18 | < 200 | < 200 | 96 to 98 °C | COc1ccc(-c2cc3c(cc2C)OC2(CCN(C4CCC4)CC2)OC3)cn1 [Example 544] | 
19 |  |  | 205 to 207 °C | O=C(N[C@H]1CCOC1)c1ccc(-c2ccc3c(c2)COC2(CCN(C4CCC4)CC2)O3)cc1 [Example 600] | Ki (human H3 receptor; [8]): < 200 nM; Ki [1, 9]: < 200 nM
20 |  |  | 131 to 133 °C | COC(=O)/C=C/c1ccc2c(c1)COC1(CCN(C3CCC3)CC1)O2 [Example 618] | Ki (human H3 receptor; [8]): < 200 nM; Ki [1, 9]: < 200 nM
21 |  |  | 100 to 102 °C | COc1cc(C(=O)NC2CCOCC2)ccc1-c1ccc2c(c1)COC1(CCN(C3CCC3)CC1)O2 [Example 688] | Ki (human H3 receptor; [8]): < 200 nM; Ki [1, 9]: < 200 nM
22 |  |  | 57 to 60 °C | OC(c1cncnc1)c1ccc2c(c1)COC1(CCN(C3CCC3)CC1)O2 (stereo not drawn) [Example 692] | Ki (human H3 receptor; [8]): < 200 nM; Ki [1, 9]: < 200 nM
23 | < 200 | < 200 | 193 to 196 °C | O=c1ccc(-c2ccc3c(c2)COC2(CCN(C4CCC4)CC2)O3)cn1Cc1ccccc1 [Example 553] | 
24 | < 200 | < 200 | 120 to 125 °C | CN1CC(c2ccc3c(c2)COC2(CCN(C4CCC4)CC2)O3)CCC1=O (stereo not drawn) [Example 550] | 
25 |  |  | 250 °C (dec.) | NC(=O)c1ccc(-c2ccc3c(c2)COC2(CCN(C4CCC4)CC2)O3)s1 [Example 679] | Ki (human H3 receptor; [8]): < 200 nM; Ki [1, 9]: < 200 nM
